Measured values as given in ChEMBL document CHEMBL3044763, “Inhibitory Activities of Rhodanine Derivatives on Plant Growth” (Biosci Biotechnol Biochem, 1996).

Experiments:
[1] = tested on: Brassica rapa subsp. oleifera; test: Growth inhibition of Brassica rapa subsp. oleifera assessed as total chlorophyll level at 5 x 10^-5 M after 7 days; format: functional; design: scale not given: the % may be the effect or the level left
[2] = tested on: Brassica rapa subsp. oleifera; test: Growth inhibition of Brassica rapa subsp. oleifera assessed as chlorophyll a level at 3 x 10^-4 M after 7 days; format: functional; design: scale not given: the % may be the effect or the level left
[3] = Toxicity in Mus musculus ddY (mouse) assessed as mortality at 350 mg/kg, ip after 6 days; format: organism-based; design: dose 350 mg/kg, route intraperitoneal; conditions: in vivo
[4] = Toxicity in Mus musculus ddY (mouse) assessed as mortality at 375 mg/kg, ip after 3 days; format: organism-based; design: dose 375 mg/kg, route intraperitoneal; conditions: in vivo
[5] = Toxicity in Mus musculus ddY (mouse) assessed as mortality at 375 mg/kg, ip after 4 days; format: organism-based; design: dose 375 mg/kg, route intraperitoneal; conditions: in vivo
[6] = Toxicity in Mus musculus ddY (mouse) assessed as mortality at 300 mg/kg, ip after 7 days; format: organism-based; design: dose 300 mg/kg, route intraperitoneal; conditions: in vivo
[7] = Toxicity in Mus musculus ddY (mouse) assessed as mortality at 325 mg/kg, ip after 2 days; format: organism-based; design: dose 325 mg/kg, route intraperitoneal; conditions: in vivo
[8] = Toxicity in Mus musculus ddY (mouse) assessed as mortality at 300 mg/kg, ip after 2 days; format: organism-based; design: dose 300 mg/kg, route intraperitoneal; conditions: in vivo
[9] = Toxicity in Mus musculus ddY (mouse) assessed as mortality at 275 mg/kg, ip after 7 days; format: organism-based; design: dose 275 mg/kg, route intraperitoneal; conditions: in vivo
[10] = Toxicity in Mus musculus ddY (mouse) assessed as mortality at 350 mg/kg, ip after 3 days; format: organism-based; design: dose 350 mg/kg, route intraperitoneal; conditions: in vivo
[11] = tested on: Brassica rapa subsp. oleifera; test: Growth inhibition of Brassica rapa subsp. oleifera assessed as chlorophyll a level at 5 x 10^-5 M after 7 days; format: functional; design: scale not given: the % may be the effect or the level left
[12] = tested on: Brassica rapa subsp. oleifera; test: Growth inhibition of Brassica rapa subsp. oleifera assessed as chlorophyll b level at 1 x 10^-4 M after 7 days; format: functional; design: scale not given: the % may be the effect or the level left
[13] = Toxicity in Mus musculus ddY (mouse) assessed as mortality at 325 mg/kg, ip after 5 days; format: organism-based; design: dose 325 mg/kg, route intraperitoneal; conditions: in vivo
[14] = tested on: Brassica rapa subsp. oleifera; test: Growth inhibition of Brassica rapa subsp. oleifera assessed as chlorophyll a level at 3 x 10^-5 M after 7 days; format: functional; design: scale not given: the % may be the effect or the level left
[15] = Toxicity in Mus musculus ddY (mouse) assessed as mortality at 350 mg/kg, ip after 7 days; format: organism-based; design: dose 350 mg/kg, route intraperitoneal; conditions: in vivo
[16] = tested on: Brassica rapa subsp. oleifera; test: Growth inhibition of Brassica rapa subsp. oleifera assessed as root growth at 5 x 10^-5 M after 7 days; format: functional
[17] = Toxicity in Mus musculus ddY (mouse) assessed as mortality at 400 mg/kg, ip after 7 days; format: organism-based; design: dose 400 mg/kg, route intraperitoneal; conditions: in vivo
[18] = Toxicity in Mus musculus ddY (mouse) assessed as mortality at 325 mg/kg, ip after 1 day; format: organism-based; design: dose 325 mg/kg, route intraperitoneal; conditions: in vivo
[19] = Toxicity in Mus musculus ddY (mouse) assessed as mortality at 350 mg/kg, ip after 1 day; format: organism-based; design: dose 350 mg/kg, route intraperitoneal; conditions: in vivo
[20] = Toxicity in Mus musculus ddY (mouse) assessed as mortality at 375 mg/kg, ip after 1 day; format: organism-based; design: dose 375 mg/kg, route intraperitoneal; conditions: in vivo
[21] = Toxicity in Mus musculus ddY (mouse) assessed as mortality at 400 mg/kg, ip after 6 days; format: organism-based; design: dose 400 mg/kg, route intraperitoneal; conditions: in vivo
[22] = Toxicity in Mus musculus ddY (mouse) assessed as mortality at 275 mg/kg, ip after 4 days; format: organism-based; design: dose 275 mg/kg, route intraperitoneal; conditions: in vivo
[23] = Toxicity in Mus musculus ddY (mouse) assessed as mortality at 275 mg/kg, ip after 3 days; format: organism-based; design: dose 275 mg/kg, route intraperitoneal; conditions: in vivo
[24] = Toxicity in Mus musculus ddY (mouse) assessed as mortality at 375 mg/kg, ip after 5 days; format: organism-based; design: dose 375 mg/kg, route intraperitoneal; conditions: in vivo
[25] = tested on: Brassica rapa subsp. oleifera; test: Growth inhibition of Brassica rapa subsp. oleifera assessed as chlorophyll a level at 1 x 10^-4 M after 7 days; format: functional; design: scale not given: the % may be the effect or the level left
[26] = tested on: Brassica rapa subsp. oleifera; test: Growth inhibition of Brassica rapa subsp. oleifera assessed as total chlorophyll level at 3 x 10^-5 M after 7 days; format: functional; design: scale not given: the % may be the effect or the level left
[27] = Toxicity in Mus musculus ddY (mouse) assessed as mortality at 275 mg/kg, ip after 2 days; format: organism-based; design: dose 275 mg/kg, route intraperitoneal; conditions: in vivo
[28] = tested on: Brassica rapa subsp. oleifera; test: Growth inhibition of Brassica rapa subsp. oleifera assessed as root growth at 3 x 10^-4 M after 7 days; format: functional
[29] = Toxicity in Mus musculus ddY (mouse) assessed as mortality at 350 mg/kg, ip after 2 days; format: organism-based; design: dose 350 mg/kg, route intraperitoneal; conditions: in vivo
[30] = Toxicity in Mus musculus ddY (mouse) assessed as mortality at 325 mg/kg, ip after 6 days; format: organism-based; design: dose 325 mg/kg, route intraperitoneal; conditions: in vivo

**Q.** For O=C1CSC(=S)N1 [RHODANINE], which Activity [1] is on record?
**A.** Its Activity is 19.17%.

**Q.** And the Activity [2]?
**A.** Its Activity is 2.09%.

**Q.** And the mortality at 144 h [3]?
**A.** The mortality at 144 h was 80%.

**Q.** And the mortality at 72 h [4]?
**A.** Its mortality at 72 h is 100%.

**Q.** What about the mortality at 96 h [5] of the same molecule?
**A.** The mortality at 96 h was 100%.

**Q.** What about the mortality at 168 h [6] of the same molecule?
**A.** The mortality at 168 h was 40%.

**Q.** What about the mortality at 48 h [7] of the same molecule?
**A.** The mortality at 48 h was 80%.

**Q.** And the mortality at 48 h [8]?
**A.** The mortality at 48 h was 40%.

**Q.** And the mortality at 168 h [9]?
**A.** Its mortality at 168 h is 0%.

**Q.** And the mortality at 72 h [10]?
**A.** The mortality at 72 h was 80%.

**Q.** And the Activity [11]?
**A.** The Activity was 14.1%.

**Q.** And the Activity [12]?
**A.** Its Activity is 2.41%.

**Q.** And the mortality at 120 h [13]?
**A.** Its mortality at 120 h is 80%.

**Q.** What about the Activity [14] of the same molecule?
**A.** Its Activity is 14.1%.

**Q.** And the mortality at 168 h [15]?
**A.** Its mortality at 168 h is 80%.

**Q.** What about the Root length [16] of the same molecule?
**A.** The Root length was 42.5 mm.

**Q.** What about the mortality at 168 h [17] of the same molecule?
**A.** The mortality at 168 h was 100%.

**Q.** And the mortality at 24 h [18]?
**A.** Its mortality at 24 h is 40%.

**Q.** And the mortality at 24 h [19]?
**A.** The mortality at 24 h was 20%.

**Q.** What about the mortality at 24 h [20] of the same molecule?
**A.** Its mortality at 24 h is 80%.

**Q.** What about the mortality at 144 h [21] of the same molecule?
**A.** Its mortality at 144 h is 100%.

**Q.** What about the mortality at 96 h [22] of the same molecule?
**A.** Its mortality at 96 h is 0%.

**Q.** What about the mortality at 72 h [23] of the same molecule?
**A.** The mortality at 72 h was 0%.

**Q.** And the mortality at 120 h [24]?
**A.** Its mortality at 120 h is 100%.

**Q.** And the Activity [25]?
**A.** The Activity was 6.76%.

**Q.** And the Activity [26]?
**A.** Its Activity is 19.19%.

**Q.** And the mortality at 48 h [27]?
**A.** The mortality at 48 h was 0%.

**Q.** And the Activity [28]?
**A.** The Activity was 11.3 mm.

**Q.** And the mortality at 48 h [29]?
**A.** The mortality at 48 h was 80%.

**Q.** What about the mortality at 144 h [30] of the same molecule?
**A.** Its mortality at 144 h is 80%.
